Laboratory results taken from patent publication US12172992B2, “Pyrimidines for degrading Bruton's tyrosine kinase” (AbbVie Inc., priority 2022, dated 2024).

What was measured:
[1] = molecular target: BTK in mouse bone marrow (Mus musculus (Mouse), UniProt P35991); assay: Mouse Bone Marrow Assay (MSD ELISA of BTK degradation in bone marrow); assay type: in vivo; conditions: female C57BL/6J mice, single dose of Dose A, bone marrow collected after 24 hours
Protocol: Female C57BL/6J mice (Jackson Laboratories) were used for this study. Compounds or vehicle/control were prepped with EtOH; PEG-400; Phosal 53 MCT (10:30:60, v/v). Four mice were tested per compound or vehicle/control. On Day 1, mice were administered a single dose of Dose A. On Day 2 (after 24 hours), tissue (bone marrow) was collected from one hind leg per mouse.
An MSD (Meso Scale Discovery) ELISA (enzyme-linked immunosorbent assay) based assay was used to determine BTK degradation in mouse bone marrow. The following materials and equipment were used: 10% NP40 solution (nonionic polyoxyethylene surfactant, ThermoFisher, cat no. 28324); protease inhibitor mini tablet (Roche, cat no. 05 892 970 001); PhosphoSTOP™ tablet (Roche, cat no. 04 906 837 001); Pierce™ BCA Protein Assay Kit (Thermofisher, Cat No. 23225); Precellys® 2 mL lysing tube with 2.8 mm beads (VWR, cat no. 10032-756); Bertin Precellys® 24/Cryolys® cooling system; 96-well MSD streptavidin pre-coated plates (MSD, cat no. L15SA-1); MSD Blocker A (MSD, cat no. R93BA-4); capture antibody, biotinylated BTK mAb (BD Biosciences, cat no. 624008; custom order); primary detection antibody, BTK RpAb (rabbit polyclonal antibody, CST, cat no. 8547S, D3H5 clone); secondary detection antibody, anti-Rabbit-Sulfo-Tag (MSD, cat no. R32AB-1); read Buffer, 4× (MSD, cat no. R92TC-1); recombinant BTK protein (Thermofisher, cat no. PR5442A); MSD Tris Wash Buffer (10×) (MSD, cat no. R61TX-1); PBS (phosphate-buffered saline); deionized water (diH2O); Lysis Buffer [0.2% NP40 in PBS+Protease Inhibitor tablet (1 tablet/10 mL)+PhosphoSTOP tablet (1 tablet/10 mL)]; 3% MSD Blocker A [MSD Blocker A+450 mL diH2O+50 mL]; and 10×MSD Tris Wash Buffer.
Lysis buffer [(PBS+0.2% NP40+PI (protease inhibitor)+PhosphoSTOP)] was prepared and put on ice until it was fully cold. Ice cold lysis buffer […] was added to each Precellys® tube containing beads and bone marrow sample. Sample tubes were transferred into Precellys® machine and homogenized using 5000 rpm—2×20 seconds. The sample lysates were centrifuged at 14,000 rpm for 20 minutes at 4° C. after homogenizing.
The protein concentration was determined using Pierce™ BCA Protein Assay Kit following manufacturer's recommended protocol. The protein normalized working solution was prepared, using 30 μg protein per sample lysate for assay.
A 300 ng/ml working stock solution of recombinant BTK protein in lysis buffer was prepared, and the sample was serially diluted at 3-fold dilution (10-point assay, highest concentration was 300 ng/mL and lowest concentration was 0.015 ng/mL)
MSD plate coating: Coating antibody (biotinylated-BTK mAb) stock solution was prepared at 1 μg/mL in PBS buffer. 50 μL/well capture antibody (Biotinylated BTK mAb) solution was added, and the plates were shaken gently at ambient temperature for two hours. The plates were washed 3 times with 1×MSD Tris Wash Buffer in a plate washer (300 μL/well), and the plates were blocked with 3% MSD Blocker A (150 μL/well). The plates were incubated for an additional 1-2 hours at ambient temperature with gentle shaking. The plates were washed 3 times with 1×MSD wash buffer using plate washer. Bone marrow lysates (30 μg) at a final volume of 50 μL/well were added into the plates. The serially diluted standard samples were added to the same plates at a final volume of 50 μL/well. The plates were incubated overnight at 4° C. with gentle shaking.
The plates were washed three times with 1×MSD wash buffer (prepared from 10× concentration buffer) using plate washer. Primary detection antibody at 50 μL/well was added (BTK RpAb; 1:1000 dilution in 1% MSD Blocker A). The plates were incubated for two hours at ambient temperature with gentle shaking. The plates were washed three times with 1×MSD wash buffer using plate washer. Anti-Rabbit-SULFO-TAG secondary antibodies (50 μl/well) were added, 1:500 diluted in 1% MSD Blocker A, and the plates were incubated for one to two hours at ambient temperature. […]

[2] = test system: TCL1-driven CLL bearing BTK^C481S mutation; assay: TCL1-driven CLL bearing BTK C481S mutation in C57BL/6 mice, circulating leukemia burden; assay type: in vivo, mouse
Source text: EIA-TCL1 CLL transgenic mice (Crogen Pharmaceuticals LLC) were crossed with BTK^C481S knock-in mice (AbbVie) to generate Eμ-TCL1 transgenic mice carrying the BTK^C481S mutation. The leukemic splenocytes from these BTK^C481S Eμ-TCL1 transgenic mice (Passage 1) were transplanted intravenously into C57BL/6 mice, leading to CLL development in the peripheral blood and spleen. When circulating CLL burden (CD5+CD19+ cells as described below) in the recipient mice reached over 90%, their splenocytes (Passage 2) containing high CLL burden were cryopreserved and used for CLL efficacy studies. […]
To determine the absolute/total leukocyte numbers, complete blood counts were determined for each mouse using the Genesis™ veterinary hematology analyzer (Oxford Science Inc.).
Cells isolated from murine peripheral blood mononuclear cells (PMBCs) were collected to determine antigen expression. […] Cells were gated on CD45+, and thereafter the percentage of cells that were CD5+CD19+ from that subset was calculated. […]
Whole blood was collected weekly post tumor implantation via submandibular cheek bleeding. Circulating leukemic burden was calculated by multiplying absolute/total leukocyte count with the percentage of the leukocytes have the immunophenotype CD19^+CD5^+. […]

Sequence of BTK in mouse bone marrow (P35991 whole entry): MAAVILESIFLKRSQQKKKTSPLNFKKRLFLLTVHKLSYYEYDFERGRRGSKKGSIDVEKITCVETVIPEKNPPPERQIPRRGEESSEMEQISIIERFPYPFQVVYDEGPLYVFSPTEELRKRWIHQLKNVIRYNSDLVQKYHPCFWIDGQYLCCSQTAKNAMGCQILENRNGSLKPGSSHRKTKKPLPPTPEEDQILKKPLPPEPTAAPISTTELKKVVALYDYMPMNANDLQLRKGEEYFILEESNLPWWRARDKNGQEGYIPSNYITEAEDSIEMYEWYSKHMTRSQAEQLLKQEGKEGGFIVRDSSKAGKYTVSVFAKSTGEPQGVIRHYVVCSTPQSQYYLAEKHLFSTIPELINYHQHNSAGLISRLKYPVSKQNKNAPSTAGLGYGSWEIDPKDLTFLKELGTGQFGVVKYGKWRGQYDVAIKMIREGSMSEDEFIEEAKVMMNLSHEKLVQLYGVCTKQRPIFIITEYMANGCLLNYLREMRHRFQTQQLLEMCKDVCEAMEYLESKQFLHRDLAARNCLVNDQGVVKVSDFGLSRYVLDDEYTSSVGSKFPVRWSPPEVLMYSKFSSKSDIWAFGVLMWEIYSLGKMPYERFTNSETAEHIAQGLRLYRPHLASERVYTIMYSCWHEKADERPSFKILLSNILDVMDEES

Cc1cc(-c2cc(Nc3ccc(N4CCN(CCc5ccc(N6CCC(=O)NC6=O)cc5)C[C@@H]4C)cn3)ncn2)ccc1[C@@H](C)NC(=O)c1nc(C(C)(C)C)no1 [Example 1, 3-tert-butyl-N-[(1R)-1-{4-[6-({5-[(2S)-4-{2-[4-(2,4-dioxo-1,3-diazinan-1-yl)phenyl]ethyl}-2-methylpiperazin-1-yl]pyridin-2-yl}amino)pyrimidin-4-yl]-2-methylphenyl}ethyl]-1,2,4-oxadiazole-5-carboxamide]
Mouse Bone Marrow (%) (% remaining BTK, vehicle versus treated) [1]: 11%
CLL burden control (no increase from the initial tumor burden) ([2]; QD for 19 days, at Dosage 3 and Dosage 4): Complete CLL burden control
circulating leukemia burden (CD19+CD5+ CLL cells per μL) ([2]; once daily (QD) for 19 days, Dosage 1-4, FIG. 1): controlled circulating leukemia burden of the TCL1-driven CLL bearing BTK^C481S mutation in C57BL/6 mice in a dose-dependent manner
